Measured values taken from patent US12428401B2, “Salt of an aminopyridine derivative compound, a crystalline form thereof, and a process for preparing the same” (Yuhan Corporation, priority 2017, dated 2025).
Where a name gives a salt, the structure may show the parent alone. Read-outs that look alike come from different tables or passages of the source.

Columns and labels:
[1] = Pharmacokinetic comparison test in normal rats; type: in vivo, rats (SD rats); details: male, SD, rat, plasma, 30 mg/kg, Normal rats, oral 30 mg/5 ml/kg in 0.5% methylcellulose
Description: (§1) Specifically, the maximum plasma concentration (Cmax) and the area under the plasma concentration curve (AUClast) in the normal rats and the rats treated with esomeprazole were compared to evaluate the absorption of the drugs in the actual animals.
(§2) In order to compare the pharmacokinetic parameters, 8-week old male rats (SD rats) with a body weight of about 250 g were used as test animals.

[2] = Pharmacokinetic comparison test in rats treated with esomeprazole; type: in vivo, rats (SD rats); details: male, SD, rat, plasma, po, 30 mg/kg, Rats treated with esomeprazole (i.v. 5 mg/2 mL/kg for 3 days), oral 30 mg/5 ml/kg
Description: as §1, §2
A comparison of the pharmacokinetic parameters (i.e., the maximum plasma concentration and the area under the plasma concentration curve) calculated therefrom are shown in Table 7 and FIGS. 12 and 13.

[3] = Pharmacokinetic comparison test in beagle dogs; type: in vivo; details: male, dog, plasma, 5 mg/kg, oral 5 mg/2 mL/kg in 0.5% methylcellulose
Description: A comparison of the pharmacokinetic parameters (i.e., the maximum plasma concentration and the area under the plasma concentration curve) calculated therefrom are shown in Table 8 and FIG. 14.

[4] = accelerated conditions; for Content / Purity: HPLC
Description: The five compounds were tested for stability under stress conditions and accelerated conditions.

[5] = Stability test under stress conditions (PXRD, DSC, appearance, HPLC); details: for Content / Purity: HPLC
[6] = read-out: Area under the plasma concentration curve (AUClast)
[7] = read-out: Maximum plasma concentration (Cmax)
[8] = stress conditions, start to 4 weeks

## C=CC(=O)Nc1cc(Nc2nccc(-n3cc(CN(C)C)c(-c4ccccc4)n3)n2)c(OC)cc1N1CCOCC1 [Ex. 1, mesylate salt of N-(5-(4-(4-((dimethylamino)methyl)-3-phenyl-1H-pyrazol-1-yl)pyrimidine-2-ylamino)-4-methoxy-2-morpholinophenyl)acrylamide]
[1]; [6]
  AUC(0-t): 8.14 µg·h/mL
[1]; [7]
  Cmax: 0.816 µg/mL
[2]; [6]
  AUC(0-t): 5.21 µg·h/mL
[2]; [7]
  Cmax: 0.427 µg/mL
[3]; [6]
  AUC(0-t): 0.811 µg·h/mL
[3]; [7]
  Cmax: 0.135 µg/mL
[4]; 1 mo
  DSC onset: 214 °C
  Water content: 2.73%
  Content: 98.9%
  Purity: 99.3%
[4]; 3 mos
  DSC onset: 214 °C
  Water content: 3.19%
  Content: 98.9%
  Purity: 99.3%
[4]; 6 mos
  DSC onset: 214 °C
  Water content: 3.01%
  Content: 99.1%
  Purity: 99.3%
[4]; Start
  Content: 98.8%
  Purity: 99.2%
  DSC onset: 214 °C
  Water content: 2.48%
[4]; start to 6 months
  Content Change: +0.3%
  Purity Change: +0.1%
  Water content Change: +0.53%
[5]; stress and accelerated conditions together, purity, water content, PXRD pattern, appearance
  Stability (overall conclusion of the stability test): excellent in stability
[5]; stress conditions, 2 weeks
  Appearance (color): White
  DSC onset: 214 °C
  Water content: 2.71%
  Content: 97.7%
  Purity: 99.3%
[5]; stress conditions, 4 weeks
  Appearance (color): White
  DSC onset: 214 °C
  Water content: 2.70%
  Content: 98.9%
  Purity: 99.3%
[5]; stress conditions, Start
  Content: 98.8%
  Purity: 99.2%
  Appearance (color): White
  DSC onset: 214 °C
  Water content: 2.48%
[5]; [8]
  Content Change: +0.1%
  Purity Change: +0.1%
  Water content Change: +0.22%
